# In patent publication US20250163104A1, “MACROCYCLIC IMMUNOMODULATORS” (priority 2021, published 2025):
# pIC50: −log10 of the molar value. *1 amine or outer side, *2 acyl side, *3 side chain or, on linkers, in order; H or OH if unused. Where a SMILES comes first, the peptide text is derived from it. Bridges are numbered along the chain shown (N, C = ends). [ ]: non-standard residue; d: D form. The star is where a group is joined. Ala(6-(2-MePh)pyridin-3-yl) = Cc1ccccc1-c1ccc(C[C@H](N)C(=O)O)cn1; X5 = O=C([C@H](Cc1ccc2ncccc2c1)N[*:1])[*:2]; X8 = O=C([C@H](Cc1ccc2ccncc2c1)N[*:1])[*:2]; Bip = N[C@@H](Cc1ccc(-c2ccccc2)cc1)C(=O)O; 1Nal = N[C@@H](Cc1cccc2ccccc12)C(=O)O; 2Nal = N[C@@H](Cc1ccc2ccccc2c1)C(=O)O; Gla = N[C@@H](CC(C(=O)O)C(=O)O)C(=O)O; αMeF = C[C@](N)(Cc1ccccc1)C(=O)O; αMeE = C[C@](N)(CCC(=O)O)C(=O)O; Cha = N[C@@H](CC1CCCCC1)C(=O)O; Cit = NC(=O)NCCC[C@H](N)C(=O)O; Carboxymethyl = O=C(O)C*; Orn = NCCC[C@H](N)C(=O)O; Dab = NCC[C@H](N)C(=O)O; Dap = NC[C@H](N)C(=O)O
# Molecular target: T1, human PD-1 / PD-L1-Ig binding on Jurkat cell line over-expressing human PD-1 (Jurkat-PD-1) (Homo sapiens, UniProt Q15116)
# T1 construct: expressed in transfected cells; host or cells: Jurkat
# T1 sequence (Q15116 25-288): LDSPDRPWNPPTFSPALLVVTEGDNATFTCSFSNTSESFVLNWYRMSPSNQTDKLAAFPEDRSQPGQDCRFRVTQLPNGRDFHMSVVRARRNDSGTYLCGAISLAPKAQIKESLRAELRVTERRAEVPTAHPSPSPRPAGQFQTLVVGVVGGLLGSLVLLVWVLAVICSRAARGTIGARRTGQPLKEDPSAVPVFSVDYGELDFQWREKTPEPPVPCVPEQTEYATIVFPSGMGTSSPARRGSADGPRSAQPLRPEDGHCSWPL
# Assay: Jurkat-PD-1 Cell Binding High-Content Screening Assay (CBA)
# Format: cell-based
# Settings: Jurkat-PD-1 cells, PE-labeled PD-L1-Ig 20 nM final; read-out: Jurkat HPD1_PDL1 IC50
# Procedure, shortened: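 Jurkat cells over-expressing human PD-1, in DMEM/10% FCS, pre-incubated with compound 2 h at 37° C. PE-labeled human PD-L1-Ig (20 nM final) added for 1 h; cells fixed in paraformaldehyde with Hoechst 33342 nuclear stain, washed, and bound fluorescence quantified by high-content imaging.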
row,pIC50,SMILES
1,6.44,CC(C)C[C@H]1NC(=O)[C@H](CCCN)NC(=O)[C@H](CCCNC(N)=O)NC(=O)[C@H](Cc2ccc(-c3ccccc3)cc2)NC(=O)[C@H](C(C)C)NC(=O)[C@H](Cc2c[nH]c3ccccc23)NC(=O)[C@H](CC(=O)O)NC(=O)[C@H](CC(C(=O)O)C(=O)O)NC(=O)[C@H](CN)NC(=O)CSC[C@@H](C(=O)N[C@@H](C)C(N)=O)NC(=O)[C@H]([C@@H](C)O)NC(=O)[C@H](C(C)C)NC(=O)[C@H](CC2CCCCC2)NC(=O)[C@H](CCN)NC1=O [Compound 2134] ({CH2CO}-[Dap][Gla]DWV[Bip][Cit][Orn][dL][Dab][Cha]VTCA-NH2; thioether N-14)
2,6.88,Cc1ccccc1-c1ccc(C[C@@H]2NC(=O)[C@H](CN)NC(=O)CSC[C@@H](C(=O)N[C@@H](C)C(N)=O)NC(=O)[C@H]([C@@H](C)O)NC(=O)[C@H](C(C)C)NC(=O)[C@H](CC3CCCCC3)NC(=O)[C@H](CCN)NC(=O)[C@@H](CC(C)C)NC(=O)[C@H](CCCN)NC(=O)[C@H](CCCNC(N)=O)NC(=O)[C@H](Cc3ccc(-c4ccccc4)cc3)NC(=O)[C@H](C(C)C)NC(=O)[C@H](Cc3c[nH]c4ccccc34)NC(=O)[C@H](CC(=O)O)NC2=O)cn1 [Compound 2135] ({CH2CO}-[Dap][Ala(6-(2-MePh)pyridin-3-yl)]DWV[Bip][Cit][Orn][dL][Dab][Cha]VTCA-NH2; thioether N-14)
3,6.09,CC(C)C[C@H]1NC(=O)[C@H](CCCN)NC(=O)[C@H](CCCNC(N)=O)NC(=O)[C@H](Cc2ccc(-c3ccccc3)cc2)NC(=O)[C@H](C(C)C)NC(=O)[C@H](Cc2c[nH]c3ccccc23)NC(=O)[C@H](CC(=O)O)NC(=O)[C@](C)(CCC(=O)O)NC(=O)[C@H](CN)NC(=O)CSC[C@@H](C(=O)N[C@@H](C)C(N)=O)NC(=O)[C@H]([C@@H](C)O)NC(=O)[C@H](C(C)C)NC(=O)[C@H](CC2CCCCC2)NC(=O)[C@H](CCN)NC1=O [Compound 2136] ({CH2CO}-[Dap][αMeE]DWV[Bip][Cit][Orn][dL][Dab][Cha]VTCA-NH2; thioether N-14)
4,7.94,CC(C)C[C@H]1NC(=O)[C@H](CCCN)NC(=O)[C@H](CCCNC(N)=O)NC(=O)[C@H](Cc2ccc(-c3ccccc3)cc2)NC(=O)[C@H](C(C)C)NC(=O)[C@H](Cc2c[nH]c3ccccc23)NC(=O)[C@H](CC(=O)O)NC(=O)[C@](C)(Cc2ccccc2)NC(=O)[C@H](CN)NC(=O)CSC[C@@H](C(=O)N[C@@H](C)C(N)=O)NC(=O)[C@H]([C@@H](C)O)NC(=O)[C@H](C(C)C)NC(=O)[C@H](CC2CCCCC2)NC(=O)[C@H](CCN)NC1=O [Compound 2137] ({CH2CO}-[Dap][αMeF]DWV[Bip][Cit][Orn][dL][Dab][Cha]VTCA-NH2; thioether N-14)
5,7.15,Cc1ccc(C[C@@H]2NC(=O)[C@H](CC(=O)O)NC(=O)[C@H](Cc3ccc(OCC(=O)O)cc3)NC(=O)[C@H](CN)NC(=O)CSC[C@@H](C(=O)N[C@@H](C)C(N)=O)NC(=O)[C@H]([C@@H](C)O)NC(=O)[C@H](C(C)C)NC(=O)[C@H](CC3CCCCC3)NC(=O)[C@H](CCN)NC(=O)[C@@H](CC(C)C)NC(=O)[C@H](CCCN)NC(=O)[C@H](CCC(=O)O)NC(=O)[C@H](Cc3ccc(-c4ccccc4)cc3)NC(=O)[C@H](C(C)C)NC2=O)cc1 [Compound 2139]
6,6.32,COc1ccc(C[C@@H]2NC(=O)[C@H](CC(=O)O)NC(=O)[C@H](Cc3ccc(OCC(=O)O)cc3)NC(=O)[C@H](CN)NC(=O)CSC[C@@H](C(=O)N[C@@H](C)C(N)=O)NC(=O)[C@H]([C@@H](C)O)NC(=O)[C@H](C(C)C)NC(=O)[C@H](CC3CCCCC3)NC(=O)[C@H](CCN)NC(=O)[C@@H](CC(C)C)NC(=O)[C@H](CCCN)NC(=O)[C@H](CCC(=O)O)NC(=O)[C@H](Cc3ccc(-c4ccccc4)cc3)NC(=O)[C@H](C(C)C)NC2=O)cc1 [Compound 2140] ({CH2CO}-[Dap]Y(Carboxymethyl)DY(Me)V[Bip]E[Orn][dL][Dab][Cha]VTCA-NH2; thioether N-14)
7,7.58,CC(C)C[C@H]1NC(=O)[C@H](CCCN)NC(=O)[C@H](CCC(=O)O)NC(=O)[C@H](Cc2ccc(-c3ccccc3)cc2)NC(=O)[C@H](C(C)C)NC(=O)[C@H](Cc2ccc(O)cc2)NC(=O)[C@H](CC(=O)O)NC(=O)[C@H](Cc2ccc(OCC(=O)O)cc2)NC(=O)[C@H](CN)NC(=O)CSC[C@@H](C(=O)N[C@@H](C)C(N)=O)NC(=O)[C@H]([C@@H](C)O)NC(=O)[C@H](C(C)C)NC(=O)[C@H](CC2CCCCC2)NC(=O)[C@H](CCN)NC1=O [Compound 2141] ({CH2CO}-[Dap]Y(Carboxymethyl)DYV[Bip]E[Orn][dL][Dab][Cha]VTCA-NH2; thioether N-14)
8,6.26,CC(C)C[C@H]1NC(=O)[C@H](CCCN)NC(=O)[C@H](CCC(=O)O)NC(=O)[C@H](Cc2ccc(-c3ccccc3)cc2)NC(=O)[C@H](C(C)C)NC(=O)[C@H](Cc2ccc3ccccc3c2)NC(=O)[C@H](CC(=O)O)NC(=O)[C@H](Cc2ccc(OCC(=O)O)cc2)NC(=O)[C@H](CN)NC(=O)CSC[C@@H](C(=O)N[C@@H](C)C(N)=O)NC(=O)[C@H]([C@@H](C)O)NC(=O)[C@H](C(C)C)NC(=O)[C@H](CC2CCCCC2)NC(=O)[C@H](CCN)NC1=O [Compound 2142] ({CH2CO}-[Dap]Y(Carboxymethyl)D[2Nal]V[Bip]E[Orn][dL][Dab][Cha]VTCA-NH2; thioether N-14)
9,6.86,CC(C)C[C@H]1NC(=O)[C@H](CCCN)NC(=O)[C@H](CCC(=O)O)NC(=O)[C@H](Cc2ccc(-c3ccccc3)cc2)NC(=O)[C@H](C(C)C)NC(=O)[C@H](Cc2c[nH]c3ccc(C#N)cc23)NC(=O)[C@H](CC(=O)O)NC(=O)[C@H](Cc2ccc(OCC(=O)O)cc2)NC(=O)[C@H](CN)NC(=O)CSC[C@@H](C(=O)N[C@@H](C)C(N)=O)NC(=O)[C@H]([C@@H](C)O)NC(=O)[C@H](C(C)C)NC(=O)[C@H](CC2CCCCC2)NC(=O)[C@H](CCN)NC1=O [Compound 2143]
10,6.11,CC(C)C[C@H]1NC(=O)[C@H](CCCN)NC(=O)[C@H](CCC(=O)O)NC(=O)[C@H](Cc2ccc(-c3ccccc3)cc2)NC(=O)[C@H](C(C)C)NC(=O)[C@H](Cc2ccc3ccncc3c2)NC(=O)[C@H](CC(=O)O)NC(=O)[C@H](Cc2ccc(OCC(=O)O)cc2)NC(=O)[C@H](CN)NC(=O)CSC[C@@H](C(=O)N[C@@H](C)C(N)=O)NC(=O)[C@H]([C@@H](C)O)NC(=O)[C@H](C(C)C)NC(=O)[C@H](CC2CCCCC2)NC(=O)[C@H](CCN)NC1=O [Compound 2144] ({CH2CO}-[Dap]Y(Carboxymethyl)D[X8]V[Bip]E[Orn][dL][Dab][Cha]VTCA-NH2; thioether N-14)
11,6.33,CC(C)C[C@H]1NC(=O)[C@H](CCCN)NC(=O)[C@H](CCC(=O)O)NC(=O)[C@H](Cc2ccc(-c3ccccc3)cc2)NC(=O)[C@H](C(C)C)NC(=O)[C@H](Cc2ccc3ncccc3c2)NC(=O)[C@H](CC(=O)O)NC(=O)[C@H](Cc2ccc(OCC(=O)O)cc2)NC(=O)[C@H](CN)NC(=O)CSC[C@@H](C(=O)N[C@@H](C)C(N)=O)NC(=O)[C@H]([C@@H](C)O)NC(=O)[C@H](C(C)C)NC(=O)[C@H](CC2CCCCC2)NC(=O)[C@H](CCN)NC1=O [Compound 2145] ({CH2CO}-[Dap]Y(Carboxymethyl)D[X5]V[Bip]E[Orn][dL][Dab][Cha]VTCA-NH2; thioether N-14)
12,7.97,CC(C)C[C@H]1NC(=O)[C@H](CCCN)NC(=O)[C@H](CCC(=O)O)NC(=O)[C@H](Cc2ccc(-c3ccccc3)cc2)NC(=O)[C@H](C(C)C)NC(=O)[C@H](Cc2cccc3ccccc23)NC(=O)[C@H](CC(=O)O)NC(=O)[C@H](Cc2ccc(OCC(=O)O)cc2)NC(=O)[C@H](CN)NC(=O)CSC[C@@H](C(=O)N[C@@H](C)C(N)=O)NC(=O)[C@H]([C@@H](C)O)NC(=O)[C@H](C(C)C)NC(=O)[C@H](CC2CCCCC2)NC(=O)[C@H](CCN)NC1=O [Compound 2146] ({CH2CO}-[Dap]Y(Carboxymethyl)D[1Nal]V[Bip]E[Orn][dL][Dab][Cha]VTCA-NH2; thioether N-14)
13,7.92,CC(C)C[C@H]1NC(=O)[C@H](CCCN)NC(=O)[C@H](CCC(=O)O)NC(=O)[C@H](Cc2ccc(-c3ccccc3)cc2)NC(=O)[C@H](C(C)C)NC(=O)[C@H](Cc2ccc(F)cc2)NC(=O)[C@H](CC(=O)O)NC(=O)[C@H](Cc2ccc(OCC(=O)O)cc2)NC(=O)[C@H](CN)NC(=O)CSC[C@@H](C(=O)N[C@@H](C)C(N)=O)NC(=O)[C@H]([C@@H](C)O)NC(=O)[C@H](C(C)C)NC(=O)[C@H](CC2CCCCC2)NC(=O)[C@H](CCN)NC1=O [Compound 2147]
14,7.76,CC(C)C[C@H]1NC(=O)[C@H](CCCN)NC(=O)[C@H](CCC(=O)O)NC(=O)[C@H](Cc2ccc(-c3ccccc3)cc2)NC(=O)[C@H](C(C)C)NC(=O)[C@H](Cc2ccc(F)c(F)c2)NC(=O)[C@H](CC(=O)O)NC(=O)[C@H](Cc2ccc(OCC(=O)O)cc2)NC(=O)[C@H](CN)NC(=O)CSC[C@@H](C(=O)N[C@@H](C)C(N)=O)NC(=O)[C@H]([C@@H](C)O)NC(=O)[C@H](C(C)C)NC(=O)[C@H](CC2CCCCC2)NC(=O)[C@H](CCN)NC1=O [Compound 2148]
15,7.38,CC(C)C[C@H]1NC(=O)[C@H](CCCN)NC(=O)[C@H](CCC(=O)O)NC(=O)[C@H](Cc2ccc(-c3ccccc3)cc2)NC(=O)[C@H](C(C)C)NC(=O)[C@H](Cc2cc(F)c(F)c(F)c2)NC(=O)[C@H](CC(=O)O)NC(=O)[C@H](Cc2ccc(OCC(=O)O)cc2)NC(=O)[C@H](CN)NC(=O)CSC[C@@H](C(=O)N[C@@H](C)C(N)=O)NC(=O)[C@H]([C@@H](C)O)NC(=O)[C@H](C(C)C)NC(=O)[C@H](CC2CCCCC2)NC(=O)[C@H](CCN)NC1=O [Compound 2149]
16,8.12,CC(C)C[C@H]1NC(=O)[C@H](CCCN)NC(=O)[C@H](CCC(=O)O)NC(=O)[C@H](Cc2ccc(-c3ccccc3)cc2)NC(=O)[C@H](C(C)C)NC(=O)[C@H](Cc2ccccc2F)NC(=O)[C@H](CC(=O)O)NC(=O)[C@H](Cc2ccc(OCC(=O)O)cc2)NC(=O)[C@H](CN)NC(=O)CSC[C@@H](C(=O)N[C@@H](C)C(N)=O)NC(=O)[C@H]([C@@H](C)O)NC(=O)[C@H](C(C)C)NC(=O)[C@H](CC2CCCCC2)NC(=O)[C@H](CCN)NC1=O [Compound 2150]
